Results on ten molecules are retold here after patent publication US10335372B2, “Compositions with modified nucleases targeted to viral nucleic acids and methods of use for prevention and treatment of viral diseases” (priority 2004, dated 2019).

Usually Kd stands for a measure of binding affinity in units of concentration. Broadly, the IC50 is the midpoint of a concentration-inhibition curve.

Assay [1] deals with avian adenovirus. Also noted: species or system chickens. As to conditions: in vivo.
Assay [2] deals with S-protein (Bos taurus, UniProt P61823). Conditions: N-terminal residues 1-15; cited from earlier work.
Assay [3] relates to HIV-1 (HXB2). The assay can be described thus: Plaque reduction assay in CD4+ HeLa cells of serially passaged virus. In kind it is cell-based. On the technique in general: Plaque reduction counts the foci of infection that form in a cell layer.
In assay [4] the test system is HIV-1. Kind of assay: HIV-1 infectivity on serial passage in MT-4 cells with drug. Type of assay: cell-based.
The test system of assay [5] is herpes virus simplex I (HSV-I). The assay can be described thus: Effect of tri-peptide P3 and P-PEG-R8 on replication of HSV-1 in vitro. As to conditions: for HSV Titer: single values. In kind it is cell-based.
Assay [6] concerns dsDNA. As to conditions: physiological monovalent cation strength; cited from earlier work.
Assay [7] deals with honeybee paralysis virus. Type of assay: in vivo, honeybees. As to conditions: of 100 infected. As to the method:
Infectious titer of HBVP is […] per ml. The honeybees are infected by feeding the viral emulsion. Insects are sprayed by an aerosol of enzyme diluted in physiological solution 3 hours before the inoculation of virus. […] Treatment of insects 6 hours after inoculation of virus still protected them from development of disease.

Assay [8] has as its system ssRNA equine encephalitis virus. In kind it is cell-based. As to conditions: 500 UA/ml.
Assay [9] concerns ssRNA coronavirus. Kind of assay: RNase A on virus replication in HEP-2 cells. As to conditions: 200 UA/ml.
Assay [10] deals with dsRNA reovirus. The assay can be described thus: RNase A on virus replication in HEP-2 cells. Conditions: 200 UA/ml.
Assay [11] has as its system ssRNA corona virus. Kind of assay: Antiviral efficacy of pegylated human RNase I.
Assay [12] has as its system dsDNA. The assay can be described thus: Hydrolysis of dsDNA in human serum by native, multi-charged and actin-resistant DNase I variants.
Assay [13] has as its system cytomegalovirus. Kind of assay: Antiviral activity of modified DNase I against cytomegalovirus in cell culture. Conditions: 500 UA/ml, 48 h at 37° C.; for Virus Titer: single values.

Numbering of substitutions follows the chain as printed. Names and notes keep the numbering of the source. Values joined by “and” are separate entries in the source; they are usually repeats but may differ in a detail not shown here. Equal entries are not always repeated. Where two headings read alike, the source gives them in different places. Where no end group is shown, it is not given here. [ ]: non-standard residue; d: D form.

Regarding [dS]-His, the chickens that survive in assay [1] was 18.

Consider KETAAAKFERQHMDS [bovine S-peptide], for which, in assay [2], the Kd was less than 0.001 µM.

On to `Cc1cn([C@H]2C[C@H](N=[N+]=[N-])[C@@H](CO)O2)c(=O)[nH]c1=O` [AZT], for which, in assay [3] (sixth passage), the shift in sensitivity is more than 1000 fold. Besides, the results for the 50% inhibitory concentration (IC50) in assay [3] (virus of fourth passage in drug-treated MT-4 cells) and in assay [3] (virus of sixth passage) were more than 50 µM and more than 250 µM, respectively. The HIV-1 infectivity in assay [4] (passage 0) is listed as 2.8 log10TCID50/ml; in [4] (passage 1), 2.6 log10TCID50/ml; in assay [4] (passage 2) it was 3.8 log10TCID50/ml; in assay [4] (passage 5), 4.7 log10TCID50/ml; in [4] (passage 15), 5.9 log10TCID50/ml.

On to [dS]-His-[dD] [P3], for which the “Average Titer” value in assay [5] (10 UA/ml) amounted to 5.7 logTCD50/ml; in assay [5] (50 UA/ml), 5.4 logTCD50/ml; in assay [5] (100 UA/ml) it was 5.1 logTCD50/ml; in assay [5] (500 UA/ml), 4.8 logTCD50/ml. Besides, the “HSV Titer” value in [5] (10 UA/ml) is 5.8 logTCD50/ml and 5.6 logTCD50/ml and 5.7 logTCD50/ml; in assay [5] (50 UA/ml), 5.5 logTCD50/ml and 5.4 logTCD50/ml and 5.3 logTCD50/ml; in [5] (100 UA/ml), 5.2 logTCD50/ml and 5.3 logTCD50/ml and 5.1 logTCD50/ml; in assay [5] (500 UA/ml), 4.8 logTCD50/ml and 4.9 logTCD50/ml and 4.7 logTCD50/ml. Further, the chickens that survive in assay [1] is listed as 19.

For “EndoG: sugar-nonspecific 29 kDa human endonuclease”, the inhibition result in assay [6] is recorded as “about 15 fold”.

B1: RNase A: bovine RNase A (Examples 21, 23, 24, 28, 37, 40) (protein, UniProt P61823 27-150, looked up)
Ribonuclease pancreatic: KETAAAKFERQHMDSSTSAASSSNYCNQMMKSRNLTKDRCKPVNTFVHESLADVQAVCSQKNVACKNGQTNCYQSYSTMSITDCRETGSSKYPNCAYKTTQANKHIIVACEGNPYVPVHFDASV
As for B1, the “Surviving Honeybees” value in assay [7] (200 UA/ml) is 4; in [7] (500 UA/ml), 11; in [7] (1000 UA/ml) it was 67; in [7] (1500 UA/ml) it was 100. The “Average Titer” value in [8] is listed as 5.26 logTCD50/0.1 ml; in assay [9], 1.5 logTCD50/0.1 ml; in [10] it was 4.0 logTCD50/0.1 ml. Besides, the Titer in assay [8] (single values) was 5.2 logTCD50/0.1 ml and 5.4 logTCD50/0.1 ml; in assay [9] (single values), 1.4 logTCD50/0.1 ml and 1.6 logTCD50/0.1 ml and 1.5 logTCD50/0.1 ml; in assay [10] (single values), 4.0 logTCD50/0.1 ml and 4.1 logTCD50/0.1 ml and 3.9 logTCD50/0.1 ml.

B2: pegylated RNase I: wild-type recombinant human RNase I reacted with mPEG-SS (conjugate, UniProt P07998 29-156, looked up)
Ribonuclease pancreatic: KESRAKKFQRQHMDSDSSPSSSSTYCNQMMRRRNMTQGRCKPVNTFVHEPLVDVQNVCFQEKVTCKNGQGNCYKSNSSMHITDCRLTNGSRYPNCAYRTSPKERHIIVACEGSPYVPVHFDASVEDST
modifications: mPEG-SS
Take B2: in assay [11], the “antiviral efficacy compared with unpegylated enzyme” value is listed as “enhances its antiviral efficacy”.

B3: arDNase (+1): actin-resistant human DNase I with substitution A114R (protein, UniProt P24855 23-282, looked up, variant A114R)
Deoxyribonuclease-1: LKIAAFNIQTFGETKMSNATLVSYIVQILSRYDIALVQEVRDSHLTAVGKLLDNLNQDAPDTYHYVVSEPLGRNSYKERYLFVYRPDQVSAVDSYYYDDGCEPCGNDTFNREPRIVRFFSRFTEVREFAIVPLHAAPGDAVAEIDALYDVYLDVQEKWGLEDVMLMGDFNAGCSYVRPSQWSSIRLWTSPTFQWLIPDSADTTATPTHCAYDRIVVAGMLLRGAVVPDSALPFNFQAAYGLSDQLAQAISDHYPVEVMLK
In the case of B3, in assay [12], the “Average T50 (min) 50% DNA hydrolysis” value was 3 min. The “Time T50 (min) 50% DNA hydrolysis” value in assay [12] (single values of triplicate) was 2 min and 3 min and 4 min.

B4: PEG-DNase: human DNase I conjugated with PEG (Example 14) (conjugate, UniProt P24855 23-282, looked up)
Deoxyribonuclease-1: B3 Deoxyribonuclease-1 with R114A
modifications: PEG
As to B4, in [13], the “Average Titer” value was 3.4 logTCD50/0.1 ml; the “Virus Titer” value was 3.2 logTCD50/0.1 ml and 3.4 logTCD50/0.1 ml and 3.5 logTCD50/0.1 ml.

B5: (PNA)2-PEG-DNase: 18-mer bis-PNA complementary to viral DNA conjugated with forked 2×20 kDa PEG and human DNase I (conjugate, UniProt P24855 23-282, looked up)
Deoxyribonuclease-1: B3 Deoxyribonuclease-1 with R114A
modifications: forked 2x20 kDa PEG, bis-PNA
B5: in assay [13], the “Average Titer” value was 0.3 logTCD50/0.1 ml; the “Virus Titer” value is 0.2 logTCD50/0.1 ml and 0.3 logTCD50/0.1 ml and 0.4 logTCD50/0.1 ml.
